The values below come from PubChem BioAssay (NCI).

Test systems include SK-MEL-28 melanoma; HS 578T breast; SR leukemia; SK-MEL-2 melanoma; EKVX NSCLC; OVCAR-8 ovarian; KM12 colon; UO-31 renal; SF-268 CNS; HT29 colon.
What all share (assay): NCI-60 cell line screen, 48 h

Several values for one entry are separate records, joined by “and”; a condition that tells them apart may be missing. Identical values can stand only once.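 Assay format: 96-well plates, 48-hour exposure. Here, GI50 denotes the concentration required for 50% inhibition of growth. Definition used: TGI = concentration required for complete inhibition of growth.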 Where only a bound is given, the exact number is not on record here.

For `COC(=O)[C@@H](NC(=O)NC(=O)NC(=O)CI)C(C)C`, the GI50 was 1.88 µM in the test with SK-MEL-28 melanoma; 26.4 µM in the test with HS 578T breast; 1.76 µM in the test with SR leukemia; 18.9 µM in the test on SK-MEL-2 melanoma; 17.2 µM in the test with EKVX NSCLC; 18.8 µM with OVCAR-8 ovarian. Also, the GI50 in the test with KM12 colon is 17.4 µM; in the test on UO-31 renal it was 1.67 µM; in the test with SF-268 CNS it was 15.1 µM; with HT29 colon, 2.01 µM. For the same compound, the TGI in the test with SK-MEL-28 melanoma is 3.85 µM; in the test on HS 578T breast, 74.6 µM; with SR leukemia, 5.64 µM; in the test with SK-MEL-2 melanoma, 36.5 µM; in the test with EKVX NSCLC, 31.4 µM; with OVCAR-8 ovarian it was 41.4 µM. The TGI in the test on KM12 colon stood at 33.8 µM; in the test with UO-31 renal it was 3.2 µM; in the test with SF-268 CNS it was 32.7 µM; with HT29 colon, 4.03 µM.

For the compound `Cc1nc2sccn2c1/C=C1/C(=O)Nc2ccccc21`, the GI50 was greater than 28.5 µM in the test on SK-MEL-28 melanoma; 19.4 µM with HS 578T breast; 1.26 µM with SR leukemia; 5.73 µM with SK-MEL-2 melanoma; 27.6 µM in the test on EKVX NSCLC; 12.7 µM in the test with OVCAR-8 ovarian. Moreover, the GI50 in the test on KM12 colon is 0.349 µM; in the test with UO-31 renal, 18.7 µM; with SF-268 CNS it was 52 µM; in the test with HT29 colon, 2.81 µM. The TGI in the test with SK-MEL-28 melanoma was greater than 100 µM; with HS 578T breast it was greater than 78.1 µM; in the test with SR leukemia, 5.44 µM; with SK-MEL-2 melanoma, greater than 100 µM; in the test with EKVX NSCLC, greater than 100 µM; with OVCAR-8 ovarian it was greater than 66.9 µM. Also, the TGI with KM12 colon, in the test on UO-31 renal, in the test with SF-268 CNS and with HT29 colon was greater than 100 µM throughout.

On to `COc1ccc(-c2[nH]ncc2-c2cc3c(c(OC)c2)OCC(=O)N3)cc1`, for which the GI50 with SK-MEL-28 melanoma is 5.19 µM; in the test on HS 578T breast, 0.298 µM; with SR leukemia it was 0.285 µM; with SK-MEL-2 melanoma, 0.564 µM; with EKVX NSCLC, 0.675 µM; in the test on OVCAR-8 ovarian, 1.17 µM. For the same compound, the GI50 with KM12 colon is 0.36 µM; in the test on UO-31 renal, 1.44 µM; in the test on SF-268 CNS, 0.935 µM; in the test with HT29 colon it was 0.378 µM. Also, the TGI is greater than 100 µM in the test with SK-MEL-28 melanoma; 2.24 µM in the test with HS 578T breast; greater than 47.7 µM in the test with SR leukemia; 81.6 µM in the test with SK-MEL-2 melanoma; greater than 33.7 µM in the test on EKVX NSCLC; greater than 50.1 µM in the test on OVCAR-8 ovarian. Besides, the TGI in the test with KM12 colon is 32.8 µM; with UO-31 renal, 53.8 µM; in the test on SF-268 CNS it was greater than 100 µM; in the test on HT29 colon, greater than 100 µM.

As to `Cc1ccc(NCCCN2CCN(CCCNc3ccc(C)c4sc5ccccc5c(=O)c34)CC2)c2c(=O)c3ccccc3sc12`, the TGI in the test on SK-MEL-28 melanoma was greater than 100 µM; with HS 578T breast, 79.6 µM; in the test on SR leukemia it was greater than 100 µM; in the test on SK-MEL-2 melanoma, 93.8 µM; in the test on EKVX NSCLC, greater than 100 µM; with OVCAR-8 ovarian, greater than 100 µM. The TGI in the test with KM12 colon, in the test with UO-31 renal, with SF-268 CNS and in the test with HT29 colon was greater than 100 µM each time.

On to `CNC(=O)c1cc(COc2nnc(Nc3ccc(Cl)cc3)c3ccoc23)ccn1`, for which the GI50 is 7.98 µM and > 10 µM in the test with SK-MEL-28 melanoma; 2.41 µM and 4.62 µM in the test on HS 578T breast; 20.1 µM and > 10 µM in the test on SR leukemia; 6.71 µM and > 10 µM with SK-MEL-2 melanoma; 10.6 µM and > 10 µM in the test on EKVX NSCLC; 3.66 µM and 5.78 µM in the test on OVCAR-8 ovarian. Also, the GI50 with KM12 colon was 21.5 µM and > 10 µM; in the test with UO-31 renal, 3.3 µM and 4.57 µM; with SF-268 CNS, 4.66 µM and > 10 µM; with HT29 colon it was 9.45 µM and > 10 µM. Also, the TGI in the test on SK-MEL-28 melanoma is 27.7 µM and > 10 µM; in the test on HS 578T breast it was 10.9 µM and > 10 µM; in the test on SR leukemia, 83.1 µM and > 10 µM; in the test with SK-MEL-2 melanoma, 21 µM and > 10 µM; in the test on EKVX NSCLC it was 28.3 µM and > 10 µM; with OVCAR-8 ovarian, 17.1 µM and > 10 µM. Also, the TGI with KM12 colon was 80.9 µM and > 10 µM; with UO-31 renal it was 15 µM and > 10 µM; in the test on SF-268 CNS it was 26.2 µM and > 10 µM; in the test on HT29 colon it was 31.2 µM and > 10 µM.

Regarding `CC/C(Cc1ccccc1)=C(\c1ccc(OCCN2CCCCCC2)cc1)c1ccc(OC(=O)NCc2ccccc2)cc1`, the GI50 in the test with SK-MEL-28 melanoma was 1.44 µM; with HS 578T breast, 2.66 µM; with SR leukemia, 0.821 µM; with SK-MEL-2 melanoma, 8.65 µM; with EKVX NSCLC, 6.29 µM; in the test with OVCAR-8 ovarian, 1.67 µM. The GI50 in the test on KM12 colon was 1.61 µM; in the test with UO-31 renal it was 2.03 µM; in the test on SF-268 CNS, 4.23 µM; in the test on HT29 colon, 1.34 µM. The TGI in the test with SK-MEL-28 melanoma is 5.17 µM; with HS 578T breast, 11.8 µM; with SR leukemia it was 2.2 µM; with SK-MEL-2 melanoma, 17.7 µM; in the test with EKVX NSCLC, 14.1 µM; in the test with OVCAR-8 ovarian, 4.96 µM. Moreover, the TGI in the test with KM12 colon is 5.49 µM; with UO-31 renal, 7.98 µM; with SF-268 CNS, 11.3 µM; in the test with HT29 colon, 3.53 µM.

Turning to `Cc1c2cnccc2c(C)c2c1c1cc(C3OCCCO3)ccc1n2C`, the GI50 is 0.459 µM in the test on SK-MEL-28 melanoma; 0.416 µM in the test with HS 578T breast; 0.0686 µM with SR leukemia; 0.314 µM with SK-MEL-2 melanoma; 0.451 µM with EKVX NSCLC; 0.139 µM in the test on OVCAR-8 ovarian. The GI50 is 0.5 µM in the test on KM12 colon, 0.278 µM with UO-31 renal, 0.268 µM in the test with SF-268 CNS and 0.363 µM in the test with HT29 colon. In addition, the TGI in the test on SK-MEL-28 melanoma came to 1.68 µM; in the test on HS 578T breast it was 2.83 µM; in the test with SR leukemia it was 1.43 µM; with SK-MEL-2 melanoma it was 1.22 µM; with EKVX NSCLC, 2.56 µM; in the test on OVCAR-8 ovarian it was 1.95 µM. Further, the TGI came out at 3.77 µM in the test with KM12 colon, 2.27 µM in the test with UO-31 renal, 1.71 µM with SF-268 CNS and 2.12 µM in the test with HT29 colon.

For `CC1=NN(C(=O)c2ccccc2O)C(=O)/C1=C/c1ccc([N+](=O)[O-])cc1`, the GI50 in the test with SK-MEL-28 melanoma was 4.7 µM; in the test with SR leukemia it was 5.04 µM; with SK-MEL-2 melanoma, 0.97 µM; in the test with EKVX NSCLC, 2.68 µM; in the test with OVCAR-8 ovarian, 1.44 µM; with KM12 colon, 0.779 µM. Besides, the GI50 in the test with UO-31 renal was 0.358 µM; in the test on SF-268 CNS, 0.444 µM; in the test on HT29 colon it was 4.22 µM. The TGI is greater than 100 µM in the test on SK-MEL-28 melanoma; greater than 100 µM in the test on HS 578T breast; greater than 100 µM in the test with EKVX NSCLC; greater than 100 µM with OVCAR-8 ovarian; greater than 100 µM in the test on KM12 colon; 1.88 µM in the test on UO-31 renal. The TGI with SF-268 CNS and with HT29 colon was greater than 100 µM each time.
